Test results taken from ChEMBL document CHEMBL5338754, “Identification of Binding Sites in the Nucleotide-Binding Domain of P-Glycoprotein for a Potent and Nontoxic Modulator, the Amine-Containing Monomeric Flavonoid FM04” (J Med Chem, 2023).

Key:
[1] = target: T1, ATP-dependent translocase ABCB1 (Homo sapiens, UniProt P08183, Q1193N); test: Activation of P-gp ATPase activity in human P-gp Q1193N mutant expressed in HEK293FT cell microsomes at 20 uM incubated for 1 hr in presence of ATP by Glo-luminescence based microplate reader assay (reference value: 0.34 +/- 0.05 pmol/min/microg); set-up: species or system Microsome
[2] = target: T2, ATP-dependent translocase ABCB1 (Homo sapiens, UniProt P08183, Q1193C); test: Negative allosteric modulator activity at human P-gp Q1193C mutant expressed in HEK293FT cells assessed as increase in intracellular doxorubicin accumulation using doxorubicin as substrate at 1 uM incubated for 150 mins by microplate reader assay (reference value: 63 +/- 2.5 %); format: cell-based; details: 2.5 h
[3] = target: T1, ATP-dependent translocase ABCB1; test: Negative allosteric modulator activity at human P-gp Q1193N mutant expressed in HEK293FT cells assessed as fold change in intracellular doxorubicin accumulation using doxorubicin as substrate at 1 uM incubated for 150 mins by microplate reader assay relative to DMSO; format: cell-based; details: 2.5 h
[4] = target: ATP-dependent translocase ABCB1 (Homo sapiens, UniProt P08183, I1115E); test: Negative allosteric modulator activity at human P-gp I1115E mutant expressed in HEK293FT cells assessed as fold change in intracellular doxorubicin accumulation using doxorubicin as substrate at 1 uM incubated for 150 mins by microplate reader assay relative to DMSO; format: cell-based; details: 2.5 h
[5] = target: T3, ATP-dependent translocase ABCB1 (Homo sapiens, UniProt P08183); test: Negative allosteric modulator activity at human wildtype P-gp expressed in HEK293FT cells assessed as fold change in intracellular doxorubicin accumulation using doxorubicin as substrate at 1 uM incubated for 150 mins by microplate reader assay relative to DMSO; format: cell-based; details: 2.5 h
[6] = target: ATP-dependent translocase ABCB1 (Homo sapiens, UniProt P08183, I1115F); test: Negative allosteric modulator activity at human P-gp I1115F mutant expressed in HEK293FT cells assessed as reversal of P-gp mediated PTX resistance by measuring sensitivity fold change incubated for 5 days by MTS assay; format: cell-based; details: 120 h, time 5 day
[7] = target: ATP-dependent translocase ABCB1 (Homo sapiens, UniProt P08183, Q1193A); test: Activation of P-gp ATPase activity in human P-gp Q1193A mutant expressed in HEK293FT cell microsomes at 20 uM incubated for 1 hr in presence of ATP by Glo-luminescence based microplate reader assay (reference value: 0.38 +/- 0.04 pmol/min/microg); set-up: species or system Microsome
[8] = target: T4, ATP-dependent translocase ABCB1 (Homo sapiens, UniProt P08183, I1115W); test: Negative allosteric modulator activity at human P-gp I1115W mutant expressed in HEK293FT cells assessed as fold change in intracellular doxorubicin accumulation using doxorubicin as substrate at 1 uM incubated for 150 mins by microplate reader assay relative to DMSO; format: cell-based; details: 2.5 h
[9] = target: ATP-dependent translocase ABCB1 (Homo sapiens, UniProt P08183, I1115L); test: Negative allosteric modulator activity at human P-gp I1115L mutant expressed in HEK293FT cells assessed as fold change in intracellular doxorubicin accumulation using doxorubicin as substrate at 1 uM incubated for 150 mins by microplate reader assay relative to DMSO; format: cell-based; details: 2.5 h
[10] = target: ATP-dependent translocase ABCB1 (Homo sapiens, UniProt P08183, T1226A); test: Negative allosteric modulator activity at human P-gp T1226A mutant expressed in HEK293FT cells assessed as fold change in intracellular doxorubicin accumulation using doxorubicin as substrate at 1 uM incubated for 150 mins by microplate reader assay relative to DMSO; format: cell-based; details: 2.5 h
[11] = target: ATP-dependent translocase ABCB1 (Homo sapiens, UniProt P08183, Q1193E); test: Negative allosteric modulator activity at human P-gp Q1193E mutant expressed in HEK293FT cells assessed as increase in intracellular doxorubicin accumulation using doxorubicin as substrate at 1 uM incubated for 150 mins by microplate reader assay (reference value: 62.9 +/- 1.4 %); format: cell-based; details: 2.5 h
[12] = target: ATP-dependent translocase ABCB1 (Homo sapiens, UniProt P08183, G1114I); test: Negative allosteric modulator activity at human P-gp G1114I mutant expressed in HEK293FT cells assessed as increase in intracellular doxorubicin accumulation using doxorubicin as substrate at 1 uM incubated for 150 mins by microplate reader assay (reference value: 94.7 +/- 2.7 %); format: cell-based; details: 2.5 h
[13] = target: T3, ATP-dependent translocase ABCB1; test: Negative allosteric modulator activity at human wildtype P-gp expressed in HEK293FT cells assessed as increase in intracellular doxorubicin accumulation using doxorubicin as substrate at 1 uM incubated for 150 mins by microplate reader assay (reference value: 47.9 +/- 3.5 %); format: cell-based; details: 2.5 h
[14] = target: T2, ATP-dependent translocase ABCB1; test: Negative allosteric modulator activity at human P-gp Q1193C mutant expressed in HEK293FT cells assessed as fold change in intracellular doxorubicin accumulation using doxorubicin as substrate at 1 uM incubated for 150 mins by microplate reader assay relative to DMSO; format: cell-based; details: 2.5 h
[15] = target: T4, ATP-dependent translocase ABCB1; test: Negative allosteric modulator activity at human P-gp I1115W mutant expressed in HEK293FT cells assessed as increase in intracellular doxorubicin accumulation using doxorubicin as substrate at 1 uM incubated for 150 mins by microplate reader assay (reference value: 98.4 +/- 1.3 %); format: cell-based; details: 2.5 h
[16] = target: T5, ATP-dependent translocase ABCB1 (Homo sapiens, UniProt P08183, I1115A); test: Negative allosteric modulator activity at human P-gp I1115A mutant expressed in HEK293FT cells assessed as fold change in intracellular doxorubicin accumulation using doxorubicin as substrate at 1 uM incubated for 150 mins by microplate reader assay relative to DMSO; format: cell-based; details: 2.5 h
[17] = target: ATP-dependent translocase ABCB1 (Homo sapiens, UniProt P08183, G1114V); test: Negative allosteric modulator activity at human P-gp G1114V mutant expressed in HEK293FT cells assessed as increase in intracellular doxorubicin accumulation using doxorubicin as substrate at 1 uM incubated for 150 mins by microplate reader assay (reference value: 102 +/- 2.6 %); format: cell-based; details: 2.5 h
[18] = target: T5, ATP-dependent translocase ABCB1; test: Negative allosteric modulator activity at human P-gp I1115A mutant expressed in HEK293FT cells assessed as increase in intracellular doxorubicin accumulation using doxorubicin as substrate at 1 uM incubated for 150 mins by microplate reader assay (reference value: 91.6 +/- 4.4 %); format: cell-based; details: 2.5 h
[19] = target: ATP-dependent translocase ABCB1 (Homo sapiens, UniProt P08183, Q1193F); test: Activation of P-gp ATPase activity in human P-gp Q1193F mutant expressed in HEK293FT cell microsomes at 20 uM incubated for 1 hr in presence of ATP by Glo-luminescence based microplate reader assay (reference value: 0.41 +/- 0.06 pmol/min/microg); set-up: species or system Microsome
[20] = target: ATP-dependent translocase ABCB1 (Homo sapiens, UniProt P08183, I1115M); test: Negative allosteric modulator activity at human P-gp I1115M mutant expressed in HEK293FT cells assessed as fold change in intracellular doxorubicin accumulation using doxorubicin as substrate at 1 uM incubated for 150 mins by microplate reader assay relative to DMSO; format: cell-based; details: 2.5 h

T2 sequence (P08183 whole entry Q1193C): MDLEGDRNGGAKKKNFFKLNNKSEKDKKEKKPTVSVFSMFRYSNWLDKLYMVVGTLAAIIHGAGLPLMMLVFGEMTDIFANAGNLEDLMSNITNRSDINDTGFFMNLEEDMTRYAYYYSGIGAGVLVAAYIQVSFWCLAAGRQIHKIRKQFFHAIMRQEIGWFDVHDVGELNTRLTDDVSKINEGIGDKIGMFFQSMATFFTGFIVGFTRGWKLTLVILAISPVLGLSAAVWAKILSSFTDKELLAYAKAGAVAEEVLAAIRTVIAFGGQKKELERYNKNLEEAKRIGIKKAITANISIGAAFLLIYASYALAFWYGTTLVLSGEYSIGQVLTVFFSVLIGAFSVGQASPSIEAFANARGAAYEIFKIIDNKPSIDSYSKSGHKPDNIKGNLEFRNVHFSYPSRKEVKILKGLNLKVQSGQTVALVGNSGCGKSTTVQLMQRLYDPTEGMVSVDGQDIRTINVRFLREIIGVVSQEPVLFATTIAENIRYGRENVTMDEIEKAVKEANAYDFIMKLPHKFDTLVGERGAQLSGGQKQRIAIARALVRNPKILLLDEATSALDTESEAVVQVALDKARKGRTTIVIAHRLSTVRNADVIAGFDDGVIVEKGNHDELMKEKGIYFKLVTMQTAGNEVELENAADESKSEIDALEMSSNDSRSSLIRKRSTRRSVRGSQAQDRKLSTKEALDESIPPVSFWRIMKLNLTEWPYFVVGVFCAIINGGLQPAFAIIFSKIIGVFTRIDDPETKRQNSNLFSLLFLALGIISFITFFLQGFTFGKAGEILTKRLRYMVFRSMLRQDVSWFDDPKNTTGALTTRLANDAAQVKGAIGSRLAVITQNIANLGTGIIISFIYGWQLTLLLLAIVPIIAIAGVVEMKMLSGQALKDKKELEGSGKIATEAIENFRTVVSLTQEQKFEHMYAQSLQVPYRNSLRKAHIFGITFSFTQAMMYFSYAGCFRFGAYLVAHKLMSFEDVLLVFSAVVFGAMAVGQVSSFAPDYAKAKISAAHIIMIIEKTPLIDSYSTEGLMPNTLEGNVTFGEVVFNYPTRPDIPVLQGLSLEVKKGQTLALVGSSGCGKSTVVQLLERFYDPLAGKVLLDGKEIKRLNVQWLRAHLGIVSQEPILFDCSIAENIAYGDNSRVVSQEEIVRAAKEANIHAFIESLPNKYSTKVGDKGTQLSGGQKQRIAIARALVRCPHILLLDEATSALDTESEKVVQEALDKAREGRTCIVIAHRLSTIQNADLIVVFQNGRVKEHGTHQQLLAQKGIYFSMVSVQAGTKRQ
T1 sequence (P08183 whole entry Q1193N): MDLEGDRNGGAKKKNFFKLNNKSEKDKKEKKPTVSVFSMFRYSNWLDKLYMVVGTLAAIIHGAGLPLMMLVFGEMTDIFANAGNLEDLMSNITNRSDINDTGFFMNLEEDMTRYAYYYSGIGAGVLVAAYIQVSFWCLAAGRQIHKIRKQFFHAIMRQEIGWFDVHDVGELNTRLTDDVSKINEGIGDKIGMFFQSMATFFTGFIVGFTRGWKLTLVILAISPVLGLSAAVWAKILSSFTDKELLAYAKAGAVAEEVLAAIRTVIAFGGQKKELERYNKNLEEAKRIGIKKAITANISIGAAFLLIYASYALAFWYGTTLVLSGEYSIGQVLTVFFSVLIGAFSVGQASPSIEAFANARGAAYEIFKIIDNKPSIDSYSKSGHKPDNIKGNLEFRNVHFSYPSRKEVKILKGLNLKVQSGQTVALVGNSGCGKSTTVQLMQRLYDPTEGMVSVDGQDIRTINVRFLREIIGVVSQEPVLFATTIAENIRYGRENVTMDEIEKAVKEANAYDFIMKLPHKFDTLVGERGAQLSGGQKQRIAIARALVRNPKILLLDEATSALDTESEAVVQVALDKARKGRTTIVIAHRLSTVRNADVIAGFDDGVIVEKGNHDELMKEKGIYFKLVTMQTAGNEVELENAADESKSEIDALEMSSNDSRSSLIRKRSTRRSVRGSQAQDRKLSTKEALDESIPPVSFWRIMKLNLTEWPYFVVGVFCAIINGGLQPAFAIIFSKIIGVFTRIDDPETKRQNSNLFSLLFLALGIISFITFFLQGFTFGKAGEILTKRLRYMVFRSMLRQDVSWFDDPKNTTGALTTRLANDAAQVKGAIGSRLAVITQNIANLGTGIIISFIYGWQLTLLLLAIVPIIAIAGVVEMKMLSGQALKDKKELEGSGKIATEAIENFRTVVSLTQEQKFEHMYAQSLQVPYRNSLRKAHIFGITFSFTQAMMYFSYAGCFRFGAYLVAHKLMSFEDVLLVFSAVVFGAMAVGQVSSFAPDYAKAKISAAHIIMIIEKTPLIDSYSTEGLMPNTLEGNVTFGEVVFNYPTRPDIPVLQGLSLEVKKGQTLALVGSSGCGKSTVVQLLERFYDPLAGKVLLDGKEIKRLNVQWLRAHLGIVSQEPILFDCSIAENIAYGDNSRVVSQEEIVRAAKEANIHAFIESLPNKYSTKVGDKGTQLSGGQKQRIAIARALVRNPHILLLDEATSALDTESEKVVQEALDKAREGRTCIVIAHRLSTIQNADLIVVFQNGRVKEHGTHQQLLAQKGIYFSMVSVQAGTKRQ
T4 sequence (P08183 whole entry I1115W): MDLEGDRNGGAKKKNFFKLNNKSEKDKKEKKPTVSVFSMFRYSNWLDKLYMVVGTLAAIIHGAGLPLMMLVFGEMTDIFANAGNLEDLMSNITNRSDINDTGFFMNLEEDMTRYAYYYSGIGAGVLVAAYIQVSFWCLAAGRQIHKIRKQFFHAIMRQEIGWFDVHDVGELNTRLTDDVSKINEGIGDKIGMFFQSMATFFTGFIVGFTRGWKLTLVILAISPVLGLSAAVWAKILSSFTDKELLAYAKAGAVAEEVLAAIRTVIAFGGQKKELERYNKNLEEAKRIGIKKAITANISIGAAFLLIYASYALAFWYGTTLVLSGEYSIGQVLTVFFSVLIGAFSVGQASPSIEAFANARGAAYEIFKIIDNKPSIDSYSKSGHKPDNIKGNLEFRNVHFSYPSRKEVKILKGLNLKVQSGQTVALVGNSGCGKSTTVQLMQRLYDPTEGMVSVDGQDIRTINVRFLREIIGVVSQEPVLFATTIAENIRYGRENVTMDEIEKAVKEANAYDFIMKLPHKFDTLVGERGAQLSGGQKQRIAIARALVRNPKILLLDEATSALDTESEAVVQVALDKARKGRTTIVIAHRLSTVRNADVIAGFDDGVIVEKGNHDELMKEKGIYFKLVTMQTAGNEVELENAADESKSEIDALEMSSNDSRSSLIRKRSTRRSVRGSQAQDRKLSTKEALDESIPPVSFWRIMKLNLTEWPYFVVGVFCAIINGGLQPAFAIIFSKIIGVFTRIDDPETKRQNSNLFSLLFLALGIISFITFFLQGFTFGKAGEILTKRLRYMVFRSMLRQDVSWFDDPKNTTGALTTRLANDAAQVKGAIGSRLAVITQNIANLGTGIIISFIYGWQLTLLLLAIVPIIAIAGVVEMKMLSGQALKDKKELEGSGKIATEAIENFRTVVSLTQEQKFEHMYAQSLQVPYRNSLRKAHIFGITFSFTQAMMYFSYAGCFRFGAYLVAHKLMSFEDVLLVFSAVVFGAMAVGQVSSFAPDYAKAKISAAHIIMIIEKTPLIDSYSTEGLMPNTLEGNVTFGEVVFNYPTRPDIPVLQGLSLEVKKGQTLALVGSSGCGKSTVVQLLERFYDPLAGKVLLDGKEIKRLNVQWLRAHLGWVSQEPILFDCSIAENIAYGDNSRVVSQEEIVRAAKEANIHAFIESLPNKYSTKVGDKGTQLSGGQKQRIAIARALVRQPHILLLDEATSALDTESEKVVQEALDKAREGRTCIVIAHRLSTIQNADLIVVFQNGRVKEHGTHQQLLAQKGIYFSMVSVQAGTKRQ
T3 sequence (P08183 whole entry): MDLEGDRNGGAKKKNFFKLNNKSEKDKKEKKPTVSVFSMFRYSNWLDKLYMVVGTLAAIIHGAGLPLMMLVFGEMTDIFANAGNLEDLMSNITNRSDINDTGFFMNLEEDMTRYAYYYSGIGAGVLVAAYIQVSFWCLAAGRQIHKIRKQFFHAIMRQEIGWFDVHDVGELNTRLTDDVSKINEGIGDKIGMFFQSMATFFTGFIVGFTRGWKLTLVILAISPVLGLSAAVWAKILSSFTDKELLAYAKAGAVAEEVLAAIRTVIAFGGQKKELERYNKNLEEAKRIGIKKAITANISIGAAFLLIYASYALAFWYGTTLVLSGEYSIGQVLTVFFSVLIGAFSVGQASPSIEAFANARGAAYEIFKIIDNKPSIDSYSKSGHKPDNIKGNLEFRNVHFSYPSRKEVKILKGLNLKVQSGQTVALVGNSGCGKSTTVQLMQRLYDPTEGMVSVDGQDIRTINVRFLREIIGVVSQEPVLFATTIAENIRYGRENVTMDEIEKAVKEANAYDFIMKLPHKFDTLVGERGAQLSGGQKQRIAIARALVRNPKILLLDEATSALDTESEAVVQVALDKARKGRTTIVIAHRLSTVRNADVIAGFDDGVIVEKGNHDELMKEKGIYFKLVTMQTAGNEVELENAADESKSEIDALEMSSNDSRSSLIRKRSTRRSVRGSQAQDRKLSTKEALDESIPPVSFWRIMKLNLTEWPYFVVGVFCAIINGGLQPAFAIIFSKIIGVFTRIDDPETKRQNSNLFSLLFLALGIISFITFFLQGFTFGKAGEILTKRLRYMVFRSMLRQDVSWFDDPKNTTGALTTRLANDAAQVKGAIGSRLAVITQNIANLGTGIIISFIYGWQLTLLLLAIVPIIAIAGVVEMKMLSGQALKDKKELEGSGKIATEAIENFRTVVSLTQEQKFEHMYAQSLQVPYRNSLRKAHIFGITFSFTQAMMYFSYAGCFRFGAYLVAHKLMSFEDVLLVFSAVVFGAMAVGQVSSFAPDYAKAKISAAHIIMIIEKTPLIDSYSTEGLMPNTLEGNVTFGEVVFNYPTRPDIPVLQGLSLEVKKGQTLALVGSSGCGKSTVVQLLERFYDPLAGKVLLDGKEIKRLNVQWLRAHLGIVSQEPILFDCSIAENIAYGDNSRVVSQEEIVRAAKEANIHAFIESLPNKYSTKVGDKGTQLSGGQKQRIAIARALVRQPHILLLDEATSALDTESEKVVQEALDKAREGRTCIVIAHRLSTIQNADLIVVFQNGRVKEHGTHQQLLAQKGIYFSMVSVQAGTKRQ

Activity [1]: 0.58 pmol/min/µg | Activity [2]: 81.4% | fold change (FC) [3]: 1.5 | fold change (FC) [4]: 1 | fold change (FC) [5]: 1.9 | fold change (FC) [6]: 15.6 | Activity [7]: 0.42 pmol/min/µg | fold change (FC) [8]: 1 | fold change (FC) [9]: 1.7 | fold change (FC) [10]: 1 | Activity [11]: 71.4% | Activity [12]: 98.9% | Activity [13]: 90.1% | fold change (FC) [14]: 1.3 | Activity [15]: 99% | fold change (FC) [16]: 1 | Activity [17]: 102.5% | Activity [18]: 89.7% | Activity [19]: 0.45 pmol/min/µg | fold change (FC) [20]: 1
SMILES: O=c1cc(-c2ccc(OCCOCCNCc3ccccc3)cc2)oc2ccccc12
